The numbers were not newly measured in patent publication US11472859B2, “Method and composition for treating neuronal hyper-excitabtiity” (The Regents of the University of California, priority 2016, dated 2022), which cites them from elsewhere.

“Also recorded” adds a separate entry of the source.

Data set [1] concerns brain or spinal parenchymal GABA release. To be noted: after systemic delivery.
Data set [2] concerns spasticity. The following applies: for anti-spasticity effect: systemic or spinal administration, clinical (and experimental animal) studies.

Regarding `Cc1ccsc1C(=CCCN1CCC[C@@H](C(=O)O)C1)c1sccc1C` [tiagabine], the “potentiation of brain or spinal parenchymal GABA release” value in data set [1] is listed as “relatively modest potentiation”. For the same compound, the anti-spasticity effect result in data set [2] is reported as “only a weak or no anti-spasticity effect”.

Turning to `NCC(CC(=O)O)c1ccc(Cl)cc1` (stereo not shown) [baclofen], the side effects entry in data set [2] (clinical use, systemic or spinal) is “major side effects such as general sedation and progressive tolerance development; also recorded: unwanted systemic side effects such as sedation”. Moreover, in data set [2], the anti-spasticity effect result was “most potent anti-spasticity pharmacological treatment; also recorded: effective in modulating spasticity; also recorded: potent antispasticity effect”.
